Entries after “also recorded” stand apart in the source; their conditions may differ. Read-outs that look alike come from different tables or passages of the source.
Experiments:
metabolic syndrome = test: FS index / neural net model of cardiovascular risk in metabolic syndrome patient populations; type: in vivo, human
Protocol: The FS index of MS comprises the following parameters: Fasting Blood Glucose, Fasting Insulin, HBA1c, BMI, AST, Triglycerides, Glucose Supply-Demand (S/D) index, and in certain cases, Proinsulin. Each parameter was mathematically arranged to increase as MS worsened, and weighted approximately equally in the prediction of MS progression and risk for CV events. […] FS index values were calculated from serial laboratory and clinical data over timeframes ranging between 2 and 10 years.
Neural Net Models and Data Display Methods. […] Unless otherwise stated, standard deviations (z-score) vs. time are presented in the individual and mean population graphics.
For purposes of analysis, clinical and laboratory parameters were converted into modified z-scores as follows: • A mean normal value (described as “mean” in the following) was selected based on review of literature and various published laboratory compendia. The Standard Deviation (SD) of each parameter was set to one half of the normal range. The modified z-score is calculated as follows: z=(Patient value−“mean”)/SD • On the graphs, the z-score is reported as the number of SD.
The FS index considered the following: Fasting Blood Glucose, Fasting Insulin, HBA1c, BMI, AST, Triglycerides, Glucose Supply-Demand (S/D) index, and in some cases Proinsulin. […] Each of these parameters was mathematically arranged to increase as Metabolic Syndrome worsened, and weighted approximately equally in the prediction of Metabolic Syndrome progression and risk for CV events.
The FS index was then applied to well-studied patient populations using a neural net model.
[formula] Where FBG is Fasting Blood Glucose in mg/dl and normal value is 100 mg/dl TG is Triglycerides in mg/dl normal value is <150 HBA1c is hemoglobin A1c in %, normal value is <6% BMI is body mass index as kg/m2 where a normal value is 20 and obese begins above 25 AST is Aspartate Transferase also called SGOT in IU/liter and a normal value is 5-50 FB insulin is fasting Blood insulin concentration in nmol/liter, a normal value is 4.0

caloric intake = details: Lee and Morley, T2D, cited from earlier work
[1] = tested on: hepatic gluconeogenesis (GNG); details: metformin 2550 mg daily, cited from earlier work

CN(C)C(=N)N=C(N)N [Metformin]
FS index response to treatment (metabolic syndrome; normal 20-50, 61 T2D on metformin, 100 RYGB, 18 Brake, 33 exenatide, 12 sitagliptin patients): Their FS index rises; also recorded: flat or slowly rising | other parameters of metabolic syndrome (BMI/weight, HBSD, lipids, NAFLD, blood pressure, insulin) (metabolic syndrome; same patient populations as FS index): their HBSD rises, they gain weight | reduction of total caloric intake during the 30 min period (caloric intake; metformin 850 mg for 3 days): 30% | reduction of total caloric intake during the 30 min period (caloric intake; metformin 1700 mg for 3 days): 50% | rate of hepatic GNG, ^2H2O method ([1]; Hundal, 3 months, before 0.42±0.04): 0.28±0.03 mmol/m^−2/min^−1 | rate of hepatic GNG, nuclear magnetic resonance method ([1]; Hundal, 3 months, before 0.59±0.03): 0.18±0.03 mmol/m^−2/min^−1 | reduction of rate of hepatic GNG, ^2H2O method ([1]; Hundal, 3 months): 33% | reduction of rate of hepatic GNG, nuclear magnetic resonance method ([1]; Hundal, 3 months): 36% | reduction of rate of plasma lactate to plasma glucose conversion (GNG) ([1]; Stumvoll, 16 weeks, fasted T2D): 37% | rate of plasma lactate to plasma glucose conversion (GNG) ([1]; Stumvoll, 16 weeks, before 7.3±0.7): 4.6±0.6 μmol/kg^−1/min^−1

From patent US9443060B2, “Method and system to provide personalized pharmaceutical compositions and dosages” (Volant Holdings GMBH, priority 2009, dated 2016)
